According to US20240124456A1, “AZA-ERGOLINE DERIVATIVE AND PREPARATION METHOD THEREFOR AND APPLICATION THEREOF” (SHANGHAITECH UNIVERSITY, priority 2021, published 2024):

Experiments:
Type in all cases: in vivo
C57B6 male mice [1] = assay: Forced swimming experiment after 5 h restraint (depression-like behavior); conditions: restraint for five hours
Procedure: (§1) The experimental animals were C57B6 male mice, n=8 in each group. Firstly, the C57B6 mice were induced to develop depression-related behavioral representations by restraining the mice for 5 hours, and then the effects of the compounds on their “depression-like” behaviors were determined by tail suspension and forced swimming experiments. The specific experimental procedure was as follows. First, the mice were restrained using a mouse fixator for tail vein injection. During the restraint process, all behavioral abilities of the mice were restricted under the condition of ensuring minimal pain to the mice. The mice were administered intraperitoneally once before and after restraint, respectively. After the restraint, the mice returned to the cage to recover for 30 minutes. After the 30 minutes, the mice in different groups were subjected to tail suspension or forced swimming to detect their “depression-like” behavior, respectively.
Forced swimming experiment: the mouse was placed in a 5 L glass beaker filled with water, the water surface height was 15 cm, and the mouse needed to swim continuously in the beaker for 6 minutes. The first two minutes was the adaptation period and no data collection was performed. The time of the intermittent immobility behavior of the mouse was recorded in the next four minutes, and the immobility behavior of the mouse was defined as: the mouse float passively on the surface of the water without movement, with only small local movements required to maintain afloat. The duration of this immobility state was used to measure the degree of behavioral despair in the mouse. Data statistics were carried out using Student-t-test, p<0.05 was *, p<0.01 was **, p<0.001 was ***, p<0.0001 was ****. The results of statistical data of restrained and unrestrained mouse tail suspension experiment and forced swimming experiment are shown in Table 8.

C57B6 male mice [2] = assay: Morris water maze, MK801 recognition impairment model; conditions: for Platform exploration time / Times of crossing platform area: MK801 model; for Times of crossing platform area: probe trial
Procedure: The experimental animals were C57B6 male mice, n=8 in each group. Firstly, mice were intraperitoneally injected with 0.2 mg/kg of MK801 twice a day for ten consecutive days to establish a recognition impairment model, and control mice were intraperitoneally injected with normal saline containing the same amount of DMSO, and then the mice were subjected to the Morris water maze test.
Experimental setup: Experiments were conducted in a blue circular water reservoir with a diameter of 130 cm. The reservoir was filled with pure water about 30 cm deep. The reservoir was divided into 4 fan-shaped areas by a cross, and the escape platform (6 cm in diameter) was located in the center of one of the fan-shaped areas and was hidden 0.5 cm below the water surface. The position where the mice entered the water was fixed at the edges of the other three fan-shaped areas. The position where the mice entered the water was basically consistent with the straight-line distance of the platform.
Acquisition phase: 30 minutes before the start of the experiment, the mice were administered intraperitoneally. After the experiment started, the mouse was put into the water with its head facing the reservoir wall, and the placement position was randomly selected from one of the three starting positions in the east, west, and south, and the underwater hidden platform was located in the north quadrant. The time taken by the mouse to find the underwater platform was recorded. […] Then the above steps were repeated 2 times at another starting position. Each animal was trained three times a day for 5 consecutive days.
Probe trial: on the second day after the last acquisition phase, the platform was removed and a 60-second probe trial began. The animal was placed in the water from the opposite side of the original platform quadrant. The number of times the animal crossed the original platform location was recorded as a detection index of spatial memory. Data statistics were carried out using Student-t-test, p<0.05 was *, p<0.01 was **, p<0.001 was ***, p<0.0001 was ****.

C57B6 male mice [3] = assay: Freezing behavior test; conditions: 10 mg/kg
Procedure: Experimental method: The experimental animals were C57B6 male mice, n=8 in each group. Mice were first injected with different compounds, and after a certain period of time (30 min or 60 min), the mice were in an upright and unnatural state by placing their forelimbs on a high glass hanging rod (about 5 cm from the ground). Then the time for the mice to maintain this state was measured, and the length of time was used to determine the freezing effect of the drug on the mice.

C57B6 male mice [4] = assay: Tail suspension experiment after 5 h restraint (depression-like behavior); conditions: for Immobility time, tail suspension experiment: restraint for five hours
Procedure: as §1
Tail suspension experiment: the tip of the tail of the mouse was fixed on the suspension rod of the iron stand by adhesive tape, and the mouse remained in the hanging position for 6 minutes. The first 2 minutes was the adaptation period, and no data collection was performed, and the time of the intermittent immobility behavior of the mouse was recorded in the next 4 minutes. The duration of this immobility state was used to measure the degree of behavioral despair in the mouse. Data statistics were carried out using Student-t-test, p<0.05 was *, p<0.01 was **, p<0.001 was ***, p<0.0001 was ****.

CN(C)C(=O)N[C@H]1CC[C@H](CCN2CCN3c4cccc5[nH]cc(c45)C[C@H]3C2)CC1 [(−)-I-10] was tested, and the “Immobility time, forced swimming experiment” value (C57B6 male mice [1]; 0.00625 mg/kg intraperitoneal) was 76.09 s, the “Immobility time, forced swimming experiment” value (C57B6 male mice [1]; 0.025 mg/kg intraperitoneal) was 56.59 s and the “Immobility time, forced swimming experiment” value (C57B6 male mice [1]; 0.1 mg/kg intraperitoneal) was 42.76 s. For the same compound, the “Immobility time, forced swimming experiment” value (C57B6 male mice [1]; 0.4 mg/kg intraperitoneal) was 22.40 s, the “improvement of MK801-induced spatial recognition impairment (in words)” value (C57B6 male mice [2]; 0.1 mg/kg) was “significantly improve” and the “improvement of MK801-induced memory impairment (in words)” value (C57B6 male mice [2]; 0.1 mg/kg and 0.025 mg/kg) was “significantly improve”. For the same compound, the Platform exploration time (C57B6 male mice [2]; fifth day, 0.00625 mg/kg) was 97.94 s, the Platform exploration time (C57B6 male mice [2]; fifth day, 0.025 mg/kg) was 92.23 s and the Platform exploration time (C57B6 male mice [2]; fifth day, 0.1 mg/kg) was 62.86 s. The Platform exploration time (C57B6 male mice [2]; first day, 0.00625 mg/kg) was 173.0 s, the Platform exploration time (C57B6 male mice [2]; first day, 0.025 mg/kg) was 161.2 s and the Platform exploration time (C57B6 male mice [2]; first day, 0.1 mg/kg) was 146.2 s. The Platform exploration time (C57B6 male mice [2]; fourth day, 0.00625 mg/kg) was 87.77 s, the Platform exploration time (C57B6 male mice [2]; fourth day, 0.025 mg/kg) was 96.66 s and the Platform exploration time (C57B6 male mice [2]; fourth day, 0.1 mg/kg) was 68.62 s. For the same compound, the “Times of crossing platform area” value (C57B6 male mice [2]; 0.00625 mg/kg) was 2.600, the “Times of crossing platform area” value (C57B6 male mice [2]; 0.025 mg/kg) was 4.500 and the “Times of crossing platform area” value (C57B6 male mice [2]; 0.1 mg/kg) was 5.800. For the same compound, the Platform exploration time (C57B6 male mice [2]; second day, 0.00625 mg/kg) was 145.3 s, the Platform exploration time (C57B6 male mice [2]; second day, 0.025 mg/kg) was 154.0 s and the Platform exploration time (C57B6 male mice [2]; second day, 0.1 mg/kg) was 128.5 s. For the same compound, the Platform exploration time (C57B6 male mice [2]; third day, 0.00625 mg/kg) was 108.1 s, the Platform exploration time (C57B6 male mice [2]; third day, 0.025 mg/kg) was 96.66 s and the Platform exploration time (C57B6 male mice [2]; third day, 0.1 mg/kg) was 88.38 s. The “freezing induction effect on mice (in words)” value (C57B6 male mice [3]) was “no freezing induction effect”, the Freezing time (C57B6 male mice [3]; 30 minutes after administration) was 2.194 ± 0.2524 s and the Freezing time (C57B6 male mice [3]; 60 minutes after administration) was 2.165 ± 0.3256 s. For the same compound, the “inhibition of restraint-induced depression-like behavior (in words)” value (C57B6 male mice [4]; 0.4 mg/kg and 0.1 mg/kg, tail suspension and forced swimming) was “significantly inhibit”, the “Immobility time, tail suspension experiment” value (C57B6 male mice [4]; 0.00625 mg/kg intraperitoneal) was 132.6 s and the “Immobility time, tail suspension experiment” value (C57B6 male mice [4]; 0.025 mg/kg intraperitoneal) was 101.8 s. The “Immobility time, tail suspension experiment” value (C57B6 male mice [4]; 0.1 mg/kg intraperitoneal) was 90.31 s and the “Immobility time, tail suspension experiment” value (C57B6 male mice [4]; 0.4 mg/kg intraperitoneal) was 72.66 s.
